Measured values as given in patent US5079235A, “Antiviral compounds” (Burroughs Wellcome Co., priority 1986, dated 1992).

Assays:
vaccinia = settings: in vitro; cited from earlier work
herpes simplex = settings: in vitro; cited from earlier work
[1] = system: Human cytomegalovirus (HCMV); test: Human cytomegalovirus (HCMV) plaque reduction assay in MRC5 or Detroit 532 cells; assay type: cell-based; settings: for IC50: Human betaherpesvirus 5, HCMV, MRC5 or Detroit 532 cells, plaque reduction
Experimental: Human cytomegalovirus (HCMV) is assayed in monolayers of either MRC5 cells (human embryonic lung) or Detroit 532 cells (human foreskin fibroblasts) in multiwell trays. Activity of compounds is determined in the plaque reduction assay, in which a cell monolayer is infected with a suspension of HCMV, and then overlaid with nutrient agarose in the form of a gel to ensure that there is no spread of virus throughout the culture. A range of concentrations of compound of known molarity was incorporated in the nutrient agarose overlay. Plaque numbers of each concentration are expressed as percentage of the control and a dose-response curve is drawn. From this curve the 50% inhibitory concentration (IC50) is estimated.

[2] = Cell toxicity in Vero cell growth inhibition assay (MTT); assay type: cell-based; settings: monkey; Vero cells, 50% inhibition of cell viability (MTT) at 96 hours; read-out: CCID50 at 96 hr
Experimental: Cell toxicity is assessed in a cell growth inhibition assay. Subconfluent cultures of Vero cells grown on 96-well microtiter dishes are exposed to different dilutions of drug, and cell viability determined daily on replicate cultures using uptake of a tetrazolium dye (MTT). The concentration required for a 50% inhibition of cell viability at 96 hours is termed CCID50.

[3] = system: Varicella zoster virus (VZV); test: Varicella zoster virus (VZV) assayed in MRC5 cells, plaque reduction method without agarose overlay; assay type: cell-based; settings: for IC50: Human alphaherpesvirus 3, MRC5 cells

For C#Cc1cn([C@H]2C[C@H](O)[C@@H](CO)O2)c(=O)[nH]c1=O [2'-deoxy-5-ethynyluridine], which “antiviral activity against vaccinia (in words)” value (vaccinia) is on record?
The value was “did not demonstrate any effect of use in human medicinal chemotherapy”.

What about the “antiviral activity against herpes simplex (in words)” value (herpes simplex) of the same molecule?
Its value is “did not demonstrate any effect of use in human medicinal chemotherapy”.

For C#Cc1cn([C@H]2C[C@H](O)[C@@H](CO)O2)c(=O)n(C(=O)c2ccccc2)c1=O [Example 1, 3-N-Benzoyl-2'-deoxy-5-ethynyluridine], which “activity against CMV (in words)” value ([1]; CMV) is on record?
The value was “high activity against CMV”.

For CC#Cc1cn([C@H]2C[C@H](O)[C@@H](CO)O2)c(=O)nc1N [Example 2, 2'-Deoxy-5-propynylcytidine], which CC50 at 96 h [2] is on record?
Its CC50 at 96 h is greater than 300 µM.

What about the “anti-VZV activity (in words)” value [3] of the same molecule?
Its value is “potent anti-VZV activity”.

And the IC50 [3]?
Its IC50 is 3.3 µM.

And the IC50 [1]?
The IC50 was greater than 20 µM.

Which results are given for CC#Cc1cn([C@H]2C[C@H](O)[C@@H](CO)O2)c(=O)n(C(=O)c2ccccc2)c1=O [Example 4, 3-N-Benzoyl-2'-deoxy-5-propynyluridine]?
CC50 at 96 h [2]: > 500 µM; anti-VZV activity (in words) [3]: potent anti-VZV activity; IC50 [3]: 2.2 µM; IC50 [1]: 28.5 µM
